Biological target: T1, NO synthase (Rattus norvegicus, UniProt P29476)
T1 construct: the supernatant was then removed by decantation and frozen in portions at −80° C; from tissue; host or cells: rat cerebellum, 20,000 g supernatant of homogenate
Test: HTS-NOS assay (NOS assay): conversion of radioactive arginine, cation-exchanger filter plate
Type: biochemical
Details: 10 μM
Outline: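 Rat cerebellum supernatant as NOS source, incubated with radiolabelled arginine plus cofactors including NADPH at 25 °C for 5-60 min depending on enzyme activity. Unconverted arginine was trapped on a cation-exchange filter plate, citrulline washed out, and bound arginine counted by scintillation; % inhibition versus no-compound reactions.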

| SMILES | HTS-NOS assay: % inhibition (10 μM) [%] |
| --- | --- |
| CC(=O)OCc1ccc(-c2nc3cc(C)ccn3c2N(C(C)=O)C2CCCCC2)o1 [Example 167, acetic acid 5-[3-(acetyl-cyclohexyl-amino)-7-methyl-imidazo[1,2-a]pyridin-2-yl]-furan-2-yl methyl ester] | 68 |
| [C-]#[N+]CCCCCCNc1c(-c2ccccn2)nc2cc(C)ccn12 [Example 107, Methylidyne-[6-(7-methyl-2-pyridin-2-yl-imidazo[1,2-a]pyridin-3-ylamino)-hexyl]-ammonium] | 50 |
| C#[N+]CCCCCCNc1c(-c2ccc[nH]2)nc2cc(C)cc(C)n12 [Example 4, {6-[5,7-Dimethyl-2-(1H-pyrrol-2-yl)-imidazo[1,2-a]pyridin-3-ylamino]-hexyl}-methylidyne-ammonium] | 54 |
| CC(=O)N(c1c(-c2ccccc2C(F)(F)F)nc2cc(C)ccn12)C1CCCCC1 [Example 164, N-cyclohexyl-N-[7-methyl-2-(2-trifluorO-methyl-phenyl)-imidazo[1,2-a]pyridin-3-yl]-acetamide] | 61 |
| [C-]#[N+]CCCCCCNc1c(-c2ccccc2F)nc2cc(C)cc(C)n12 [Example 116, {6-[2-(2-Fluoro-phenyl)-5,7-dimethyl-imidazo[1,2-a]pyridin-3-ylamino]-hexyl}-methylidyne-ammonium] | 60 |

Same assay, conditions: Table 5; concentration not given

| SMILES | NOS assay % inhibition [%] |
| --- | --- |
| Cc1ccn2c(NCc3ccccc3)c(-c3ccsc3)nc2c1.Cl [Example 309, Benzyl-(7-methyl-2-thiophen-3-yl-imidazo-[1,2-a]pyridin-3-yl)-amine hydrochloride] | 45 |
| Cc1cc(C)n2c(NC(C)(C)CC(C)(C)C)c(-c3ccsc3)nc2c1.Cl [Example 312, (5,7-Dimethyl-2-thiophen-3-yl-imidazo[1,2-a]-pyridin-3-yl)-(1,1,3,3-tetramethyl-butyl)-amine hydrochloride] | 74 |

Same assay, conditions: read-out: HTS-NOS assay: % inhibition (10 μM)

| SMILES | inhibition at 10 µM [%] |
| --- | --- |
| Cc1ccn2c(NC(C)(C)CC(C)(C)C)c(-c3ccco3)nc2c1 [Example 28, (2-Furan-2-yl-7-methyl-imidazo[1,2-a]-pyridin-3-yl)-(1,1,3,3-tetramethyl-butyl)-amine] | 50 |
| CC(=O)N(c1c(-c2cc3ccccc3o2)nc2cc(C)cc(C)n12)C(C)(C)CC(C)(C)C [Example 217, N-(2-benzofuran-2-yl-5,7-dimethyl-imidazo[1,2-a]pyridin-3-yl)-N-(1,1,3,3-tetramethyl-butyl)-acetamide] | 63 |
| CC(=O)N(c1c(-c2cccc(Cl)c2Cl)nc2ccccn12)C1CCCCC1 [Example 273, N-cyclohexyl-N-[2-(2,3-dichloro-phenyl)-imidazo[1,2-a]pyridin-3-yl]-acetamide] | 55 |
| CC(=O)N(c1c(C)cccc1C)c1c(-c2ccc(Cl)cc2Cl)nc2ccccn12 [Example 247, N-[2-(2,4-dichloro-phenyl)-imidazo[1,2-a]pyridin-3-yl]-N-(2,6-dimethyl-phenyl)-acetamide] | 56 |
| Cc1ccn2c(NC(C)(C)CC(C)(C)C)c(-c3cc4ccccc4o3)nc2c1 [Example 56, (2-Benzofuran-2-yl-7-methyl-imidazo[1,2-a]pyridin-3-yl)-(1,1,3,3-tetramethyl-butyl)-amine] | 60 |
| COC(=O)CNc1c(C)nc2cc(C)ccn12 [Example 18, (2,7-Dimethyl-imidazo[1,2-a]pyridin-3-ylamino)-acetic acid methyl ester] | 50 |
| COc1cccc(-c2nc3cc(C)cc(C)n3c2N(C(C)=O)C(C)(C)CC(C)(C)C)c1OC [Example 194, N-[2-(2,3-dimethoxy-phenyl)-5,7-dimethyl-imidazo[1,2-a]pyridin-3-yl]-N-(1,1,3,3-tetramethyl-butyl)-acetamide] | 59 |
| CCc1ccn2c(Nc3cccc(Cl)c3)c(-c3cc4ccccc4o3)nc2c1 [Example 319, (2-Benzofuran-2-yl-7-ethyl-imidazo[1,2-a]-pyridin-3-yl)-(3-chloro-phenyl)-amine] | 53 |
| CCc1ccn2c(Nc3ccc(F)c(Cl)c3)c(-c3cc(C)c(C)o3)nc2c1 [Example 322, (3-Chloro-4-fluorophenyl)-[2-(4,5-dimethyl-furan-2-yl)-7-ethyl-imidazo[1,2-a]pyridin-3-yl]-amine] | 49 |
| CC(=O)N(c1c(C)cccc1C)c1c(-c2cccc(Cl)c2Cl)nc2cc(C)cc(C)n12 [Example 169, N-[2-(2,3-dichloro-phenyl)-5,7-dimethyl-imidazo[1,2-a]pyridin-3-yl]-N-(2,6-dimethyl-phenyl)-acetamide] | 57 |
| Cc1ccn2c(NC3CCCCC3)c(-c3ccc(C(=O)O)o3)nc2c1 [Example 91, 5-(3-Cyclohexylamino-7-methyl-imidazo[1,2-a]pyridin-2-yl)-furan-2-carboxylic acid] | 64 |
| CC(=O)N(c1c(-c2cc3ccccc3o2)nc2c(C)cccn12)C(C)(C)CC(C)(C)C [Example 286, N-(2-benzofuran-2-yl-8-methyl-imidazo[1,2-a]pyridin-3-yl)-N-(1,1,3,3-tetramethyl-butyl)-acetamide] | 59 |
| CCCc1cccc2nc(-c3cccnc3)c(N(C(C)=O)C(C)(C)C)n12 [Example 265, N-tert-butyl-N-(5-propyl-2-pyridin-3-yl-imidazo[1,2-a]pyridin-3-yl)-acetamide] | 54 |
| CCOc1ccc2ccccc2c1-c1nc2cc(C)ccn2c1N(C(C)=O)C(C)(C)C [Example 290, N-tert-butyl-N-[2-(2-ethoxy-naphthalen-1-yl)-7-methyl-imidazo[1,2-a]pyridin-3-yl]-acetamide] | 67 |
| CC(=O)N(c1c(-c2c(F)cccc2Cl)nc2c(C)cc(Br)cn12)C1CCCCC1 [Example 253, N-[6-bromo-2-(2-chloro-6-fluoro-phenyl)-8-methyl-imidazo[1,2-a]pyridin-3-yl]-N-cyclohexyl-acetamide] | 51 |
| Cc1ccn2c(Nc3c(C)cccc3C)c(-c3ccccc3F)nc2c1 [Example 43, (2,6-Dimethyl-phenyl)-[2-(2-fluoro-phenyl)-7-methyl-imidazo[1,2-a]pyridin-3-yl]-amine] | 71 |
| COc1ccc(-c2nc3cc(C)ccn3c2NC(C)(C)CC(C)(C)C)cc1OC [Example 6, [2-(3,4-Dimethoxy-phenyl)-7-methyl-imidazo[1,2-a]pyridin-3-yl]-(1,1,3,3-tetramethyl-butyl)-amine] | 53 |
| CC(=O)N(c1c(-c2cccc(Cl)c2Cl)nc2cc(C)cc(C)n12)C(C)(C)CC(C)(C)C [Example 193, N-[2-(2,3-dichloro-phenyl)-5,7-dimethyl-imidazo[1,2-a]pyridin-3-yl]-N-(1,1,3,3-tetramethyl-butyl)-acetamide] | 55 |
| CC(=O)N(c1c(-c2ccc(C(=O)O)s2)nc2ccccn12)C1CCCCC1 [Example 229, 5-[3-(acetyl-cyclohexyl-amino)-imidazo[1,2-a]pyridin-2-yl]-thiophene-2-carboxylic acid] | 59 |
| CCCCN(C(C)=O)c1c(-c2ccc(F)cc2Cl)nc2ccccn12 [Example 246, N-butyl-N-[2-(2-chloro-4-fluoro-phenyl)-imidazo[1,2-a]pyridin-3-yl]-acetamide] | 55 |
| Cc1cc(C)n2c(Nc3c(C)cccc3C)c(-c3sccc3Br)nc2c1 [Example 42, [2-(3-Bromo-thiophen-2-yl)-5,7-dimethyl-imidazo[1,2-a]pyridin-3-yl]-(2,6-dimethyl-phenyl)-amine] | 55 |

From US20040023972A1, “Use of substituted imidazo[1,2-a]-pyridin-, -pyrimidin-and-pyrazin-3-yl-amine derivatives in the preparation of medicaments for inhibiting NOS” (Gruenenthal GmbH, priority 2000, published 2004)
